# Laboratory results: patent US6528042B1, “Compositions of flavonoids for use as cytoprotectants and methods of making and using them” (Galileo Laboratories, Inc., priority 1999, dated 2003)
# Experiments:
# GCL1 cells = experiment: SYTOX cell death assay in GCL1 cells treated with antimycin A (chemical ischemia); assay type: cell-based, rat hepatoma cells (fao) / human fibroblasts (W138) hybrid
# Text: At greater than 80% confluence, more than 80% of the cells participate in forming one or more phaselucent, spherical structures that are located between cells, termed bile canicular-like spaces. In contrast to the majority of cell lines maintained in culture which are fermentative, GCL1 cells, when at their maximal density and polarity, are highly oxidative (i.e., they can be readily killed by inhibitors of oxidative phosphorylation or electron transport uncouplers). […] These cells are amenable to use in high throughput screening (HTS) technology.
# The cells, with or without AA, are incubated at 37° C. in a 5% CO2 humidified incubator for 1 to 5 hours. […] The concentration of agents used for screening will be dependent upon the agents. Certain control groups contain 100 μl of HBSS only.
# (§1) SYTOX Green nucleic acid stain is a high-affinity nucleic acid stain that easily penetrates cells with a compromised plasma membrane but will not cross the membrane of live cells. The nucleic acids of dead cells fluoresce bright green at 524 nm when excited with the 488 nm spectral source or with any other 450-500 nm source. […] In the cell viability assay chemical ischemia is created in cells and then cells are incubated with the SYTOX dye. The compound antimycin is used to simulate ischemia at the same time as stimulating the cells with forskolin. […] The assay is performed on cells grown in 96-well format allowing high throughput screening of compounds.
# Aliquot at 100 μl. This 10 mM stock is then diluted to 1 mM with DMSO and aliquoted at 25 μL. Both the 10 mM and the 1 mM are stored at −20° C. until use. […] Aliquot at 100 μl and store at −20° C. until use. iv.) HBSS-SYTOX-FORSKOLIN-ANTIMYCIN (H-S-F-A) solution: H-S-F-A solution is made up fresh prior to each assay in sterile 175 ml or 225 ml Falcon bottles. […]
# Cells are grown in 96-well black plates (with or without clear bottoms) at a density of 1000 cells per well for 24 hours. The necessary number of 96-well plates containing the specific cell type are obtained and placed in the laminar flow safety cabinet. A sterile microtiter basin is filled with the appropriate volume of pre-warmed 1×HBSS. Using aseptic technique and an 8-channel aspirator, the media is carefully removed from the cells and replaced with 200 μl of 1×HBSS. This is done as quickly as possible to prevent the cells drying out. The plates are then placed in the humidified 37° C. incubators of the Biomek 2000 Side Loader. Four plates are washed at a time so as to minimize the time that the cells are sitting in 1×HBSS prior to addition of the H-S-A-compound test solution.
# (§2) Compound(s) are mixed with the 1 μM SYTOX working solution and added to the washed cell culture wells. Fluorescence is measured at designated time points (488 nm excitation and 530 nm emission). All of the sample readings subtract the background readings, which is cell-free wells only containing HBSS buffer with SYTOX green dye. The data is compared to non-treated cells (control) and is expressed as mean±S.D. from 4 culture wells. SYTOX Green fluorescence units obtained from each group are corrected for basal fluorescence (cell-free wells with only HBSS and fluorescence reagent). Data are represented as mean±SD. A paired t-test is performed comparing treated groups (Toxin+Agent) with non-treated groups (Toxin only) after subtracting the control groups (HBSS only) for each data set. Comparisons among groups are statistically evaluated by two-tailed t-test (Graphpad Prism Software, version 2.0). Differences are considered significant at P<0.05.
# Hesperetin, diosmin, luteolin and quercetin were tested individually for their ability to counteract disruptions of normal energy metabolism. Flavonoids were commercially obtained, generally from Sigma Chemical Co., St. Louis, Mo., and/or Aldrich Chemical Co., Milwaukee, Wis.
# [1] = tested on: Oxidatively competent cells; experiment: SYTOX cell death assay in oxidatively competent cells treated with antimycin A; assay type: cell-based
# Method: Oxidatively competent cells are prepared as described in Example 1. and Example 2.A and are seeded onto 96-well plates at 1×10^3/well or 2.5×10^3/well as passage 15. The cells are grown in DMEM with 10% FBS and 1.5 g/L sodium bicarbonate for 24 or 48 hours to reach 85% confluence. The cells are washed once with HBSS and then 100 μl of HBSS containing different concentration of AA (Sigma, Cat #A 8674) is added to the cells. AA is dissolved in DMSO to make a stock solution of 50 mM, then diluted with HBSS to 25, 12.5, 6.25, 3.125, and 1.56 μM for dose-response curves. The cells, with or without AA, are incubated at 37° C. in a 5% CO2 humidified incubator for 1 to 5 hours. The concentration of AA is chosen to induce 75% or 100% cell death as a screening dose to test the effect of agents to protect against AA- induced cell toxicity. The concentration of agents used for screening will be dependent upon the agents. Certain control groups contain 100 μl of HBSS only.
# as §1, §2
# Oxidatively competent cells were treated simultaneously with hesperetin, chrysin and 100 nM antimycin A2.C. The cells were treated with various low concentrations of hesperetin and various concentrations of chrysin (Sigma Chemical Co., cat. #C3018). Hesperetin, chrysin and antimycin A were mixed together before treating the cells. Cell viability was measured at time points up to 5 hours using SYTOX, as described in Example 2.F.
# In experiments carried out in support of the invention, various concentrations of diosmin and alpha-tocopherol were tested for synergistic ability to ameliorate disruption of energy metabolism secondary to stress. Oxidatively competent cells were treated simultaneously with diosmin, alpha-tocopherol and antimycin A2.C. The cells were treated with various low concentrations of diosmin (Sigma Chemical Co., cat. #D3525) and various low concentrations of (+/−) alpha-tocopherol. Diosmin, alpha-tocopherol and antimycin were mixed together before treating cells. Cell viability was measured 4 hours after treatment using SYTOX. […] Likewise, the combination of disomin (11-100 μM) with 1.1 μg/ml (+/−) alpha tocopherol was synergistic. […] Diosmin alone provided no protection at a concentration of 100 μM. […] A combination of 100 μM diosmin and 11 μg/ml (+/−) alpha tocopherol was also synergistic. […]
# [2] = cited from earlier work
# [3] = 25 μM hesperetin alone, 4 hours, control cell death 82.9%
compound,measurement,setting,value
"COc1ccc([C@@H]2CC(=O)c3c(O)cc(O)cc3O2)cc1O [Hesperetin, (S)-2,3-dihydro-5,7-dihydroxy-2-(3-hydroxy-4-methoxyphenyl)-4H-1-benzopyran-4-one]",Cell Death,GCL1 cells; [3],81.1%
same,reduction in cell death,GCL1 cells; [3],1.8%
same,protection,GCL1 cells; 50 μM Hesperetin alone,14.4%
same,Cell Death,"GCL1 cells; 50 μM Hesperetin alone, 4 hours, control 82.1%",81.3%
same,Cell Death,"GCL1 cells; 50 μM hesperetin alone, 4 hours, control 97.4%",92.6%
same,protection above control level,GCL1 cells; 75 μM Hesperetin by itself,7.5%
same,Cell Death,"GCL1 cells; Hesperetin 1.9 μM, antimycin A 100 nM, time 0:00 hr:min",0.0% ± 0.0
same,Cell Death,"GCL1 cells; Hesperetin 1.9 μM, antimycin A 100 nM, time 1:45 hr:min",0.5% ± 0.6
same,Cell Death,"GCL1 cells; Hesperetin 1.9 μM, antimycin A 100 nM, time 2:45 hr:min",30.4% ± 3.3
same,Cell Death,"GCL1 cells; Hesperetin 1.9 μM, antimycin A 100 nM, time 3:45 hr:min",66.0% ± 3.1
same,Cell Death,"GCL1 cells; Hesperetin 1.9 μM, antimycin A 100 nM, time 4:45 hr:min",81.5% ± 1.4
same,Cell Death,"GCL1 cells; Hesperetin 6 μM, antimycin A 100 nM, time 0:00 hr:min",0.0% ± 0.0
same,Cell Death,"GCL1 cells; Hesperetin 6 μM, antimycin A 100 nM, time 1:45 hr:min",1.8% ± 0.8
same,Cell Death,"GCL1 cells; Hesperetin 6 μM, antimycin A 100 nM, time 2:45 hr:min",28.4% ± 1.5
same,Cell Death,"GCL1 cells; Hesperetin 6 μM, antimycin A 100 nM, time 3:45 hr:min",65.0% ± 1.5
same,Cell Death,"GCL1 cells; Hesperetin 6 μM, antimycin A 100 nM, time 4:45 hr:min",81.8% ± 0.7
same,Cell Death,"GCL1 cells; Hesperetin 17 μM, antimycin A 100 nM, time 0:00 hr:min",0.0% ± 0.0
same,Cell Death,"GCL1 cells; Hesperetin 17 μM, antimycin A 100 nM, time 2:45 hr:min",27.2% ± 2.0
same,Cell Death,"GCL1 cells; Hesperetin 17 μM, antimycin A 100 nM, time 3:45 hr:min",64.1% ± 0.6
same,Cell Death,"GCL1 cells; Hesperetin 17 μM, antimycin A 100 nM, time 4:45 hr:min",80.3% ± 1.0
same,Cell Death,"GCL1 cells; Hesperetin 50 μM, antimycin A 100 nM, time 0:00 hr:min",0.0% ± 0.0
same,Cell Death,"GCL1 cells; Hesperetin 50 μM, antimycin A 100 nM, time 1:45 hr:min",2.3% ± 0.3
same,Cell Death,"GCL1 cells; Hesperetin 50 μM, antimycin A 100 nM, time 2:45 hr:min",14.4% ± 2.2
same,Cell Death,"GCL1 cells; Hesperetin 50 μM, antimycin A 100 nM, time 3:45 hr:min",53.1% ± 5.7
same,Cell Death,"GCL1 cells; Hesperetin 50 μM, antimycin A 100 nM, time 4:45 hr:min",74.0% ± 6.2
same,protective effect,GCL1 cells; concentrations of 50 μM and below,"little, if any, protective effect"
same,Cell Death,"[1]; 50 μM hesperetin alone, control 72.9%",73.4%
same,protection when tested separately,"[1]; 2 and 50 μM hesperetin, four hours",generally ineffective
same,abnormalities observed for a week,"[2]; administered orally to mice at 100 mg/kg (U.S. Pat. No. 5,650,433)",no abnormalities were observed
same,effects on liver function,[2]; tests using mice,no adverse effects on liver function
same,toxicity or mitogenicity,[2]; tests using mice,little toxicity or mitogenicity
